Patent publication US11214594B2, “Antimicrobial peptide having synergistic antibacterial effect with antibiotics on multidrug resistant bacteria, and use thereof” (priority 2016, dated 2022)
Like-named read-outs stand apart in the source and are kept apart here. Where a SMILES comes first, the peptide text is derived from it. [ ]: non-standard residue; d: D form.

Columns and labels:
MDRAB 12035 [1] = assay: MIC of antibiotic during combined treatment with antimicrobial peptide; type: cell-based, Acinetobacter baumannii
In short: (§1)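 Antibiotic MIC came from antibiotic dilutions added to bacteria (2×10^6 CFU/ml, MH medium) already combined with peptide serially diluted 2:1 from its own MIC. Swapping the roles of the two agents gave the peptide MIC.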

E. coli = type: cell-based, Escherichia coli; conditions: E. coli
In short: as §1

MDREC 1229 = type: cell-based, Escherichia coli
In short: as §1

A. baumannii = assay: MIC of antimicrobial peptide during combined treatment with antibiotic; type: cell-based, Acinetobacter baumannii
In short: as §1

MDRAB 12035 [2] = assay: as above; type: cell-based, Acinetobacter baumannii
In short: as §1

[3] = peptide treatment concentration 8 μg/ml
[4] = peptide treatment concentration 16 μg/ml
[5] = peptide treatment concentration 32 μg/ml
[6] = peptide treatment concentration 64 μg/ml
[7] = linezolid 64 μg/ml (Conc./MIC 1/8)
[8] = linezolid 512 μg/ml (Conc./MIC 1)
[9] = vancomycin 512 μg/ml (Conc./MIC 1/2)
[10] = vancomycin 1024 μg/ml (Conc./MIC 1)
[11] = erythromycin 4 μg/ml (Conc./MIC 1/8)
[12] = erythromycin 8 μg/ml (Conc./MIC 1/4)
[13] = erythromycin 16 μg/ml (Conc./MIC 1/2)
[14] = erythromycin 32 μg/ml (Conc./MIC 1)

## CC[C@H](C)[C@H](NC(=O)[C@H](CCCCN)NC(=O)[C@H](Cc1c[nH]c2ccccc12)NC(=O)[C@@H](N)CCCNC(=N)N)C(=O)N[C@@H](Cc1ccccc1)C(=O)N[C@@H](CCCCN)C(=O)N[C@@H](CCCCN)C(=O)N[C@H](C(=O)N[C@H](CC(C)C)C(=O)N[C@@H](CCCCN)C(=O)N[C@@H](CC(C)C)C(=O)N[C@@H](CC(C)C)C(=O)N[C@@H](Cc1c[nH]cn1)C(=O)N[C@@H](CCCCN)C(=O)N[C@@H](C)C(=O)N[C@@H](CCCCN)C(=O)N[C@@H](CCCCN)C(=O)N[C@@H](Cc1c[nH]c2ccccc12)C(N)=O)[C@@H](C)CC [PapMA-22, RWK IFK KIl KLL HKA KKW-NH2] (H-RWKIFKKI[dL]KLLHKAKKW-NH2; N-terminus assumed)
MDRAB 12035 [1]; [3]
  Erythromycin MIC during combined treatment with peptide: 1 µg/mL
  Linezolid MIC during combined treatment with peptide: 16 µg/mL
  Vancomycin MIC during combined treatment with peptide: 16 µg/mL
MDRAB 12035 [1]; [4]
  Erythromycin MIC during combined treatment with peptide: 0.25 µg/mL
  Linezolid MIC during combined treatment with peptide: 8 µg/mL
  Vancomycin MIC during combined treatment with peptide: 8 µg/mL
MDRAB 12035 [1]; [5]
  Erythromycin MIC during combined treatment with peptide: 0 µg/mL
  Linezolid MIC during combined treatment with peptide: 0 µg/mL
  Vancomycin MIC during combined treatment with peptide: 0 µg/mL
MDRAB 12035 [1]; [6]
  Erythromycin MIC during combined treatment with peptide: 0 µg/mL
  Linezolid MIC during combined treatment with peptide: 0 µg/mL
  Vancomycin MIC during combined treatment with peptide: 0 µg/mL
E. coli; with Erythromycin […] (Conc./MIC 1)
  Peptide MIC: 0 µg/mL
E. coli; with Linezolid […] (Conc./MIC 1)
  Peptide MIC: 0 µg/mL
E. coli; with Vancomycin 1024 μg/ml (Conc./MIC 1)
  Peptide MIC: 0 µg/mL
MDREC 1229; erythromycin 32 μg/ml (Conc./MIC 1/8)
  Peptide MIC during treatment with antibiotic: 2 µg/mL
MDREC 1229; erythromycin 64 μg/ml (Conc./MIC 1/4)
  Peptide MIC during treatment with antibiotic: 2 µg/mL
MDREC 1229; erythromycin […] (Conc./MIC 1)
  Peptide MIC during treatment with antibiotic: 0 µg/mL
MDREC 1229; erythromycin […] (Conc./MIC 1/2)
  Peptide MIC during treatment with antibiotic: 1 µg/mL
MDREC 1229; [7]
  Peptide MIC during treatment with antibiotic: 8 µg/mL
MDREC 1229; [8]
  Peptide MIC during treatment with antibiotic: 0 µg/mL
MDREC 1229; linezolid […] (Conc./MIC 1/2)
  Peptide MIC during treatment with antibiotic: 1 µg/mL
MDREC 1229; linezolid […] (Conc./MIC 1/4)
  Peptide MIC during treatment with antibiotic: 4 µg/mL
MDREC 1229; [9]
  Peptide MIC during treatment with antibiotic: 2 µg/mL
MDREC 1229; [10]
  Peptide MIC during treatment with antibiotic: 2 µg/mL
MDREC 1229; vancomycin […] (Conc./MIC 1/4)
  Peptide MIC during treatment with antibiotic: 4 µg/mL
MDREC 1229; vancomycin […] (Conc./MIC 1/8)
  Peptide MIC during treatment with antibiotic: 8 µg/mL
A. baumannii; [11]
  Peptide MIC during treatment with erythromycin: 8 µg/mL
A. baumannii; [12]
  Peptide MIC during treatment with erythromycin: 4 µg/mL
A. baumannii; [13]
  Peptide MIC during treatment with erythromycin: 4 µg/mL
A. baumannii; [14]
  Peptide MIC during treatment with erythromycin: 0 µg/mL
A. baumannii; linezolid 32 μg/ml (Conc./MIC 1/8)
  Peptide MIC during treatment with linezolid: 4 µg/mL
A. baumannii; linezolid 64 μg/ml (Conc./MIC 1/4)
  Peptide MIC during treatment with linezolid: 4 µg/mL
A. baumannii; linezolid […] (Conc./MIC 1)
  Peptide MIC during treatment with linezolid: 0 µg/mL
A. baumannii; linezolid […] (Conc./MIC 1/2)
  Peptide MIC during treatment with linezolid: 1 µg/mL
A. baumannii; [9]
  Peptide MIC during treatment with vancomycin: 0.25 µg/mL
A. baumannii; [10]
  Peptide MIC during treatment with vancomycin: 0 µg/mL
A. baumannii; vancomycin […] (Conc./MIC 1/4)
  Peptide MIC during treatment with vancomycin: 0.5 µg/mL
A. baumannii; vancomycin […] (Conc./MIC 1/8)
  Peptide MIC during treatment with vancomycin: 2 µg/mL
MDRAB 12035 [2]; [11]
  Peptide MIC during treatment with erythromycin: 8 µg/mL
MDRAB 12035 [2]; [12]
  Peptide MIC during treatment with erythromycin: 8 µg/mL
MDRAB 12035 [2]; [13]
  Peptide MIC during treatment with erythromycin: 4 µg/mL
MDRAB 12035 [2]; [14]
  Peptide MIC during treatment with erythromycin: 0 µg/mL
MDRAB 12035 [2]; [7]
  Peptide MIC during treatment with linezolid: 4 µg/mL
MDRAB 12035 [2]; [8]
  Peptide MIC during treatment with linezolid: 0 µg/mL
MDRAB 12035 [2]; linezolid […] (Conc./MIC 1/2)
  Peptide MIC during treatment with linezolid: 1 µg/mL
MDRAB 12035 [2]; linezolid […] (Conc./MIC 1/4)
  Peptide MIC during treatment with linezolid: 4 µg/mL
MDRAB 12035 [2]; [9]
  Peptide MIC during treatment with vancomycin: 4 µg/mL
MDRAB 12035 [2]; [10]
  Peptide MIC during treatment with vancomycin: 1 µg/mL
MDRAB 12035 [2]; vancomycin […] (Conc./MIC 1/4)
  Peptide MIC during treatment with vancomycin: 4 µg/mL
MDRAB 12035 [2]; vancomycin […] (Conc./MIC 1/8)
  Peptide MIC during treatment with vancomycin: 4 µg/mL
